Test results as given in patent US9150865B2 (priority 2010, dated 2015).
“Also recorded” adds a separate entry of the source.

How the values were obtained:
A431 keratinocytes = type: cell-based
BALB/c mice = conditions: mouse, in vivo
S. aureus Newman = system: S. aureus Newman; set-up: species or system Staphylococcus aureus; conditions: in vivo
C57BL/6J mice = conditions: mouse, in vivo
S. aureus strain Newman = system: S. aureus strain Newman; set-up: species or system Staphylococcus aureus; conditions: in vivo, ip
ADAM10 [1] = molecular target: T1, ADAM10 (Homo sapiens, UniProt O14672); type: cell-based
rabbit red cells = type: cell-based
[2] = system: Human pulmonary artery endothelial cells (HPAECs); type: cell-based
ADAM10 [3] = molecular target: T1, ADAM10; type: cell-based; remark: listed apart in the source
ADAM10 [4] = molecular target: T1, ADAM10; type: cell-based; remark: listed apart in the source
S. aureus USA300/LAC = system: S. aureus USA300/LAC; set-up: species or system Staphylococcus aureus; conditions: in vivo
ADAM10 [5] = molecular target: T1, ADAM10; type: cell-based; remark: listed apart in the source
ADAM10 [6] = molecular target: T1, ADAM10; type: cell-based; remark: listed apart in the source
A549 cells = type: cell-based, human
ADAM10 [7] = conditions: cited from earlier work
ADAM10 [8] = molecular target: T1, ADAM10; type: cell-based; remark: listed apart in the source

T1 sequence (O14672 214-748 limits assumed): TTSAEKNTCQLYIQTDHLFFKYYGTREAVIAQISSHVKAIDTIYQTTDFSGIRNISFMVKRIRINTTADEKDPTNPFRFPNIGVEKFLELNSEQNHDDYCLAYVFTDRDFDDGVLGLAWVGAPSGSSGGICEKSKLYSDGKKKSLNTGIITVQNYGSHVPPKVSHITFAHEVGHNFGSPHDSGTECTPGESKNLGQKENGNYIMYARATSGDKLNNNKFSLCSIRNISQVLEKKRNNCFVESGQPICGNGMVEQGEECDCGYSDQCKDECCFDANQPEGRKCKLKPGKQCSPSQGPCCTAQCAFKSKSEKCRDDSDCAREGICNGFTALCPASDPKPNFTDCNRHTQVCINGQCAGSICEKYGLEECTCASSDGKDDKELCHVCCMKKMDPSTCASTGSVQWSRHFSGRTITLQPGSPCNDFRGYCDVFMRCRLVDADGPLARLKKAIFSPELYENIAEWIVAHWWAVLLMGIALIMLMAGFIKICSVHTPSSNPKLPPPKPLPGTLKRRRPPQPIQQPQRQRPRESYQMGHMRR

CNC(=O)[C@@H](NC(=O)[C@H](CCCc1ccccc1)[C@H](C)N(O)C=O)C(C)(C)C [GI254023X]
epithelial barrier function upon toxin treatment (ECIS) (A431 keratinocytes): preservation of full-length E-cadherin expression and epithelial barrier function
vascular integrity / Evans blue dye extravasation (BALB/c mice): enhanced vascular integrity, manifest by limited dye extravasation
survival of lethal challenge (S. aureus Newman): all experimental animals succumbed to the lethal challenge
appearance of illness (S. aureus Newman; 200 mg/kg): less ill in appearance
time-to-death (S. aureus Newman; iv, 200 mg/kg): prolongation of time-to-death
accumulation of cells and proteinaceous edema in the alveolar space (BAL cell count, protein) (C57BL/6J mice): reduced the accumulation of both cells and proteinaceous edema in the alveolar space; also recorded: reduced alveolar exudates; also recorded: prevents Hla-induced lung epithelial barrier disruption in vivo
E-cadherin cleavage in response to Hla treatment in mice (C57BL/6J mice; ip): prevented E-cadherin cleavage in response to Hla treatment
protection against lethal S. aureus pneumonia (mortality curves) (S. aureus strain Newman): protected from rapidly lethal S. aureus pneumonia, displaying an increase in time to death and survival among some animals; also recorded: protected against lethal pneumonia
Hla-induced VE-cadherin cleavage (ADAM10 [1]): prevented VE-cadherin cleavage
Hla-induced hemolysis (rabbit red cells): blunted hemolysis
Hla-mediated barrier disruption (ECIS) [2]: complete protection of HPAECs from Hla-mediated barrier disruption
Hla-induced loss of E-cadherin expression and disruption of cell junctions (ADAM10 [3]): could be prevented; also recorded: is inhibited
Hla-induced E-cadherin cleavage (ADAM10 [4]): nearly abrogated Hla-induced E-cadherin cleavage
abscess size (S. aureus USA300/LAC): reduction in abscess size
dermonecrotic skin lesions (S. aureus USA300/LAC): did not demonstrate dermonecrotic skin lesions
skin breakdown (dermonecrosis) over the site of infection (S. aureus USA300/LAC): completely prevented skin breakdown over the site of infection
PLY-induced E-cadherin cleavage (ADAM10 [5]): prevented PLY-induced E-cadherin cleavage
full-length E-cadherin expression upon toxin treatment (ADAM10 [6]): preservation of full-length E-cadherin expression
toxin binding and oligomerization on the surface of A549 cells (A549 cells): markedly impaired toxin binding and subsequent oligomerization; also recorded: impaired toxin binding and oligomerization on A549 cells

C[C@H](CCC(=O)O)C[C@H](C)C[C@H](C)C(=O)/C=C(\O)[C@H](C)C[C@H](C)C/C=C/[C@@H](C)[C@@H](O)[C@@H](C)[C@@H](O)C[C@@H]1CC[C@@](C)([C@H]2CC[C@@](C)([C@@H](C)O)O2)O1 [Ionomycin]
induction of ADAM10 metalloprotease activity (ADAM10 [7]): potently induces the metalloprotease activity of ADAM10
E-cadherin cleavage induced by agent alone (ADAM10 [4]): stimulating E-cadherin cleavage; also recorded: E-cadherin CTFs were generated; also recorded: enhancing cleavage

Methyl-β-cyclodextrin
Hla-induced metalloprotease activation (ADAM10 [8]): abrogated metalloprotease activation
Hla-induced E-cadherin cleavage (ADAM10 [4]): abrogated metalloprotease activation and E-cadherin cleavage

N—(R)-[2-hydroxyaminocarbonyl)methyl]-4-methylpentanoyl-L-napthylalanyl-L-alanine, 2-aminoethyl amide [TAPI-1]
Hla-induced VE-cadherin cleavage (ADAM10 [1]): prevented VE-cadherin cleavage
barrier function after Hla (ECIS) [2]: maintenance of barrier function; also recorded: did not result in loss of barrier function
Hla-induced E-cadherin cleavage (Western blot) (ADAM10 [4]): impaired Hla-induced E-cadherin cleavage
surface expression of E-cadherin after Hla (immunofluorescence) (ADAM10 [4]): preserved surface expression of E-cadherin
